This note sets out measurements from ChEMBL document CHEMBL4622850, “Discovery and optimization of new oxadiazole substituted thiazole RORγt inverse agonists through a bioisosteric amide replacement approach” (Bioorg Med Chem Lett, 2020).

In data set [1] the target is T1, Nuclear receptor ROR-beta (Homo sapiens, UniProt Q92753).
T1 sequence (Q92753 whole entry): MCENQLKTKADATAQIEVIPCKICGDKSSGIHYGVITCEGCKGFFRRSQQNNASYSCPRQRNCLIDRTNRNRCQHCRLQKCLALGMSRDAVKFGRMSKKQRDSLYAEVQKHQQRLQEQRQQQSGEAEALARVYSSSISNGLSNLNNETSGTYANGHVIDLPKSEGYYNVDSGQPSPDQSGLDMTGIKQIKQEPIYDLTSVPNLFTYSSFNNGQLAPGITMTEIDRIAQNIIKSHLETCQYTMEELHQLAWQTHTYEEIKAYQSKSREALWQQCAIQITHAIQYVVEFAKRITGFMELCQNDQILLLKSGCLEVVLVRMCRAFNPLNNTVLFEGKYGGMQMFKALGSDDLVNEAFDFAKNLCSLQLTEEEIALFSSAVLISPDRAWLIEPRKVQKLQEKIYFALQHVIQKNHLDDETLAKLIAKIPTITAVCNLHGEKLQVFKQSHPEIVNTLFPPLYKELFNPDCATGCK
The data set can be described thus: Binding affinity to RORbeta (unknown origin) assessed as dissociation constant by thermal shift binding assay.

The nature of data set [2]: Solubility of compound by pH 7. To be noted: buffer. It is filed as physicochemical.
The target in data set [3] is T2, Nuclear receptor ROR-gamma (Mus musculus, UniProt P51450).
T2 sequence (P51450 whole entry): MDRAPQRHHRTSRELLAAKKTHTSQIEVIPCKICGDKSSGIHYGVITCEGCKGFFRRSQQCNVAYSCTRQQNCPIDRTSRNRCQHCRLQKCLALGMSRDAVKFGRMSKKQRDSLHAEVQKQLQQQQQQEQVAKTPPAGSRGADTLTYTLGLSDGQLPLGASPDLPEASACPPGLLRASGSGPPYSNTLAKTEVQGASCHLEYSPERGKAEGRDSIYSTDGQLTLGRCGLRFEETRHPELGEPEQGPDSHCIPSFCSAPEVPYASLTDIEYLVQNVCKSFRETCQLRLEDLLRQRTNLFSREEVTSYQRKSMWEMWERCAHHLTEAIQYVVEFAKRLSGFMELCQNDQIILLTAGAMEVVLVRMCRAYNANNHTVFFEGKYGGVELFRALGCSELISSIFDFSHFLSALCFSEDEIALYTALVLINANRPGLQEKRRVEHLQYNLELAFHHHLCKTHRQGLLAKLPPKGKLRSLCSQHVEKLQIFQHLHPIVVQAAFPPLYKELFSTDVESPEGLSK
In words: Inverse agonist activity at RORgammat in mouse whole blood assessed as reduction in IL-17a production. The data set is classed as tissue-based.

A short description of data set [4]: Solubility of compound by pH 2. It is filed as physicochemical. Particulars: buffer.
The next data set has as its target Cytochrome P450 2C19 (Homo sapiens, UniProt P33261). In words: Inhibition of CYP2C19 (unknown origin). The data set is classed as ADME.
The nature of data set [5]: Half life in rat at 1 mg/kg, iv. To be noted: in vivo. It is filed as ADME, organism-based.
Data set [6] in a line: Volume of distribution in rat at 1 mg/kg, iv. The data set is classed as ADME, organism-based. To be noted: in vivo.
Data set [7] in a line: AUC in rat at 5 mg/kg, po. It is filed as ADME, organism-based. Particulars: in vivo.
The nature of data set [8]: Cmax in rat at 5 mg/kg, po. The data set is classed as ADME, organism-based. More on the design: dose 5 mg/kg, route oral. Particulars: in vivo.
Data set [9] in a line: Clearance in rat at 1 mg/kg, iv. It is filed as ADME, organism-based. To be noted: in vivo.
The nature of data set [10]: Oral bioavailability in rat at 1 mg/kg. The data set is classed as ADME, organism-based. To be noted: in vivo.
The nature of data set [11]: Metabolic stability in rat liver microsomes assessed as half life. It is filed as ADME, Microsome.
Data set [12] addresses T3, Nuclear receptor subfamily 1 group I member 2 (Homo sapiens, UniProt O75469).
T3 sequence (O75469 whole entry): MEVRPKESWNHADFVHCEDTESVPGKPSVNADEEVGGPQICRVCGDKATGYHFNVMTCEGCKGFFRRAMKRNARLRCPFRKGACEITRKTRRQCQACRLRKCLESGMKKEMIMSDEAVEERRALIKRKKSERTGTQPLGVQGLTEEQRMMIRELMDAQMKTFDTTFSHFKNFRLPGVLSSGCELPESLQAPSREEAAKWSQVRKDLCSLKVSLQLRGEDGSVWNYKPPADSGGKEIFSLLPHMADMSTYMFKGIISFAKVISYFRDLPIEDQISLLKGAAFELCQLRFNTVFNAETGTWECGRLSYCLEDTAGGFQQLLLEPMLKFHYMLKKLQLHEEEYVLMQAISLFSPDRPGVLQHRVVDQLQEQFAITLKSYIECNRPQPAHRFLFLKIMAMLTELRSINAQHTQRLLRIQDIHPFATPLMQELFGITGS
In words: Activation of PXR (unknown origin) at 5 uM. It is filed as ADME.

The target in another data set is Cytochrome P450 2C9 (Homo sapiens, UniProt P11712). The data set can be described thus: Inhibition of CYP2C9 (unknown origin). The data set is classed as ADME.
Sequence of Cytochrome P450 2C9 (P11712 whole entry): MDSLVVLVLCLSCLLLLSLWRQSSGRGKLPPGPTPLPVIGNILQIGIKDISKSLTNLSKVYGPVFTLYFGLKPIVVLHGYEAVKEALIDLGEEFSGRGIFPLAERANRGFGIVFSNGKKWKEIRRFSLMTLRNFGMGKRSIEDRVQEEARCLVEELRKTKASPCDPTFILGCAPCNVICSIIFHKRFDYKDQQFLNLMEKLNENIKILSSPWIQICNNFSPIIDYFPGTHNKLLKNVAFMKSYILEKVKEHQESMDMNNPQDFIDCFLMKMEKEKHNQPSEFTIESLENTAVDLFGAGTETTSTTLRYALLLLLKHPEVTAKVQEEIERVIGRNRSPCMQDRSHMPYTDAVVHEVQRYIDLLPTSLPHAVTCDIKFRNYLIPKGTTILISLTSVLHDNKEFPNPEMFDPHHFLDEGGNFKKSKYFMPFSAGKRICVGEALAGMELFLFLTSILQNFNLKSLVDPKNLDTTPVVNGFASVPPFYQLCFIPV

Converted amounts (≈) assume the structure as drawn.

Sequence of Cytochrome P450 2C19 (P33261 whole entry): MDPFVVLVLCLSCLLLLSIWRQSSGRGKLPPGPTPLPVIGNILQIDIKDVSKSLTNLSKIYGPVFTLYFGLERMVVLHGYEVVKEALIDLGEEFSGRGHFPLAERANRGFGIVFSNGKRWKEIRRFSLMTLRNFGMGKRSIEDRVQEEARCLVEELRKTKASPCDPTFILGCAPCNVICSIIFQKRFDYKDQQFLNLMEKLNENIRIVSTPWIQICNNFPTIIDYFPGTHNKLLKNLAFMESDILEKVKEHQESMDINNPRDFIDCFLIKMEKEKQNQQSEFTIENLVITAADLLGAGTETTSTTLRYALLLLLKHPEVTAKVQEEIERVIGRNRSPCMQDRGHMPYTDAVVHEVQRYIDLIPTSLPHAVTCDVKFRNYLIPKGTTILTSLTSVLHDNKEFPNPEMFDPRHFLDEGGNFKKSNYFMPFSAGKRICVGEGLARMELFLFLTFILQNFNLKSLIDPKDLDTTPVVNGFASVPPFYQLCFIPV

Turning to `C[C@H](NS(=O)(=O)c1ccc(-c2sc(-c3nnc(C(C)(C)O)o3)nc2C(=O)N2CCC(F)CC2)c(Cl)c1Cl)C(F)(F)F`, the dissociation constant (Kd) in [1] is more than 50000 nM. In data set [2], this molecule showed a solubility of 165 µM (≈ 109 µg/mL).

For the molecule `C[C@H](NS(=O)(=O)c1ccc(-c2sc(-c3noc(CC(C)(C)C(=O)O)n3)nc2CC2CCC2)c(Cl)c1Cl)C(F)(F)F`, in [3], the IC50 came out at 790 nM. In addition, the solubility is 38 µM (≈ 24.4 µg/mL) in data set [2] and less than 4 µM in data set [4].

With `C[C@H](NS(=O)(=O)c1ccc(-c2sc(-c3cc(CC(C)(C)C(=O)O)ncn3)nc2CC2CCC2)c(Cl)c1Cl)C(F)(F)F`, 790 nM corresponded to half-maximal inhibition against Cytochrome P450 2C19 (IC50).

As to `C[C@H](NS(=O)(=O)c1ccc(-c2sc(-c3noc(C(C)(C)O)n3)nc2C(=O)N2CCC(F)CC2)c(Cl)c1Cl)C(F)(F)F`, the Kd in data set [1] is more than 91000 nM. Besides, the solubility in [2] came to 6.4 µM (≈ 4.23 µg/mL); in data set [4] it was 9.7 µM (≈ 6.41 µg/mL).

In the case of `C[C@H](NS(=O)(=O)c1ccc(-c2sc(-c3nnc(CC(C)(C)C(=O)O)o3)nc2Cc2ccc(F)cc2)c(C(F)F)c1F)C(F)(F)F`, the solubility was 57 µM (≈ 38.8 µg/mL) in data set [2] and less than 4 µM in data set [4].

As to `C[C@H](NS(=O)(=O)c1ccc(-c2sc(-c3nnc(CC(C)(C)C(=O)O)o3)nc2CN2CCCC(F)(F)C2)c(C(F)F)c1F)C(F)(F)F`, the concentration for half-maximal inhibition (IC50) in data set [3] was determined as 448 nM. Moreover, the solubility in data set [2] amounted to 182 µM (≈ 128 µg/mL); in data set [4], 54 µM (≈ 38.1 µg/mL).

For `C[C@H](NS(=O)(=O)c1ccc(-c2sc(-c3nnc(CC(C)(C)C(=O)O)o3)nc2CC2CCC2)c2ccccc12)C(F)(F)F`, the figures for the half-life in data set [5] and in [11] were 3.1 h and more than 3 h, respectively. This molecule also returned a Vd in data set [6] of 1.1 L/kg. Further, the AUC in [7] came to 13100 ng·h/mL. In data set [8], this molecule came in with a Cmax of 2300 nM. The solubility in data set [2] was 24 µM (≈ 14.9 µg/mL); in [4], less than 4 µM. Further, in [9], the clearance is 6 mL/min/kg. Also, the bioavailability in [10] is 96%.

`CC(C)(C)NS(=O)(=O)c1ccc(-c2sc(-c3nnc(C(C)(C)O)o3)nc2CC2CCCCC2)c2ccccc12`: the solubility in data set [2] and in data set [4] was less than 1 µM in each case.

`CC[C@H](NS(=O)(=O)c1ccc(-c2sc(CC(C)(C)C(=O)O)nc2CC2CCC2)c(Cl)c1Cl)C(F)(F)F` showed an Activity in [12] of 40%. Also, the solubility in data set [2] is 178 µM (≈ 105 µg/mL); in data set [4] it was less than 4 µM.

Regarding `C[C@H](NS(=O)(=O)c1ccc(-c2sc(-c3cc(CC(C)(C)C(=O)O)on3)nc2CC2CCC2)c(Cl)c1Cl)C(F)(F)F`, the solubility in [2] and in data set [4] was less than 4 µM in each case.

The molecule `CC[C@H](NS(=O)(=O)c1ccc(-c2sc(CC(C)(C)C(=O)O)nc2CC2CCC2)c(Cl)c1)C(F)(F)F` gave an Activity in data set [12] of 2%.

For the molecule `CC[C@H](NS(=O)(=O)c1ccc(-c2sc(-c3nnc(CC(C)(C)C(=O)O)o3)nc2CC2CCCCC2)c(C(F)F)c1F)C(F)(F)F`, the IC50 in data set [3] was determined as 1540 nM. In addition, the solubility in data set [2] and in data set [4] was less than 4 µM each time.

Regarding `CCN(CC)C(=O)c1nc(-c2nnc(C(C)(C)O)o2)sc1-c1ccc(S(=O)(=O)N[C@@H](C)C(F)(F)F)c(Cl)c1Cl`, in data set [3], the IC50 amounted to 100 nM. The Kd in data set [1] was more than 60000 nM. Besides, in data set [2], the solubility is 55 µM (≈ 34.7 µg/mL). Further, the half-life in data set [11] amounted to 1.58 h.

`CC(C)(C)NS(=O)(=O)c1ccc(-c2sc(C(=O)N[C@H]3C[C@H](C(=O)O)C3)nc2CC2CCCCC2)c2ccccc12` displayed an AUC in [7] of 302 ng·h/mL. The same molecule had a Cmax in [8] of 220 nM. Moreover, the solubility in data set [2] and in [4] was less than 1 µM throughout. In addition, the bioavailability in data set [10] was found to be 20%.

Consider `CC[C@H](NS(=O)(=O)c1ccc(-c2sc(-c3nnc(CC(C)(C)C(=O)O)o3)nc2CC2CCCC2)c(C(F)F)c1F)C(F)(F)F`, for which, in data set [3], the IC50 stood at 230 nM. Further, the figures for the solubility in [2] and in data set [4] were 69 µM (≈ 46.1 µg/mL) and less than 4 µM, respectively.

Take `C[C@H](NS(=O)(=O)c1ccc(-c2sc(-c3cnc(CC(C)(C)C(=O)O)s3)nc2CC2CCC2)c(Cl)c1Cl)C(F)(F)F`: the solubility in [2] and in data set [4] was less than 4 µM each time.

Consider `CC(C)(O)CNC(=O)c1nc(CC2CCCCC2)c(-c2ccc(S(=O)(=O)NC(C)(C)C)c3ccccc23)s1`, for which the solubility in data set [2] and in data set [4] was less than 4 µM each time.

On to `C[C@H](NS(=O)(=O)c1ccc(-c2sc(C(=O)NCC(C)(C)O)nc2CC2CCC2)c(Cl)c1Cl)C(F)(F)F`, for which the half-life in [11] worked out at 0.617 h.

On to `COC(C)(C)Cc1nc(-c2nnc(CC(C)(C)C(=O)O)o2)sc1-c1ccc(S(=O)(=O)N[C@@H](C)C(F)(F)F)c(F)c1C(F)F`, for which the IC50 in [3] was 9000 nM. The solubility in data set [2] is 363 µM (≈ 239 µg/mL); in data set [4], less than 4 µM.

As to `C[C@H](NS(=O)(=O)c1ccc(-c2sc(-c3nnc([C@H]4C[C@H](C(=O)O)C4)o3)nc2CC2CCC2)c(Cl)c1Cl)C(F)(F)F`, the figures for the solubility in [2] and in data set [4] were 118 µM (≈ 75.5 µg/mL) and less than 4 µM, respectively.

`C[C@H](NS(=O)(=O)c1ccc(-c2sc(CC(C)(C)C(=O)O)nc2CC2CCC2)c(C(F)(F)F)c1)C(F)(F)F` gave an Activity in data set [12] of 43%.

Consider `C[C@H](NS(=O)(=O)c1ccc(-c2sc(-c3nnc(CC(C)(C)C(=O)O)s3)nc2CC2CCC2)c(Cl)c1Cl)C(F)(F)F`, for which, at Cytochrome P450 2C9, the IC50 came out at 900 nM.

As for `CC[C@H](NS(=O)(=O)c1ccc(-c2sc(-c3nnc(CC(C)(C)O)o3)nc2C(=O)N2CCC(F)CC2)c(Cl)c1Cl)C(F)(F)F`, the IC50 in data set [3] worked out at 120 nM. Besides, the solubility in data set [2] was 99 µM (≈ 68.2 µg/mL); in data set [4], 41 µM (≈ 28.2 µg/mL).

On to `C[C@H](NS(=O)(=O)c1ccc(-c2sc(CC(C)(C)C(=O)O)nc2CC2CCC2)c(Cl)c1Cl)C(F)(F)F`, for which the IC50 in data set [3] was found to be 1870 nM. In data set [12], this molecule had an Activity of 33%. The values for the solubility in [2] and in data set [4] were 268 µM (≈ 154 µg/mL) and less than 4 µM, respectively.

Turning to `C[C@H](NS(=O)(=O)c1ccc(-c2sc(-c3nnc(CC(C)(C)C(=O)O)o3)nc2C(=O)N2CCCC[C@@H]2C)c(C(F)F)c1F)C(F)(F)F`, the solubility in [2] is 398 µM (≈ 278 µg/mL); in data set [4], less than 4 µM.
